Experimental data: patent US11634443B2, “Treprostinil prodrugs” (United Therapeutics Corporation, priority 2019, dated 2023)
Values joined by “and” are separate entries in the source; they are usually repeats but may differ in a detail not shown here. Equal values may be shown once. “Also recorded” adds a separate entry of the source. Read-outs that look alike come from different tables or passages of the source. One block for each compound: values may come before it.

Experiments:
[1] = Clinical signs and mortality after single oral gavage or IV bolus dose in rats; type: in vivo
Protocol: Animals received a single dose via oral gavage or intravenous (bolus) injection. The following parameters and end points were evaluated in this study: clinical signs and pharmacokinetic parameters. Single males in the oral 50 mg/kg prodrugs XVII and VI group were found dead on Day 2. No macroscopic findings were noted. All other animals survived to the scheduled euthanasia.
Animals were not removed from the cage during observations, unless necessary for identification or confirmation of possible findings.
The animals were removed from the cage, and a detailed clinical observation was performed on the day of animal selection. Cage side observations were performed at 1 to 2 hours post dose. Animals were weighed individually following receipt, on the day of randomization, and on each day of dosing (prior to dosing). Individual body weights are presented below.
All surviving animals were euthanized and discarded. A necropsy was conducted for animals that died on study, and specified tissues were saved.

[2] = for Dose proportionality of mean treprostinil Cmax and AUC0-24hr: PO 1 to 50 mg/kg prodrug
[3] = Stability and formation of treprostinil in human cryopreserved hepatocytes
Protocol: (§1) Mixed-gender human cryopreserved hepatocytes, male Sprague-Dawley rat cryopreserved hepatocytes, and male Beagle dog cryopreserved hepatocytes were purchased from XenoTech. The hepatocytes were thawed and prepared according to the vendor's instructions, pooled into Krebs Henseleit buffer (KHB, pH 7.4), and kept on ice prior to the experiments. […] The final DMSO content in the incubation mixture was ≤0.1%. […] Aliquots of the test article were withdrawn (n=1) at 0, 15, 30, 60, and 120 minutes. […] Aliquots of 7-HC were withdrawn (n=1) at 0 and 15 minutes. The reaction was immediately terminated by adding two volumes of ice-cold acetonitrile (ACN) to the test article samples and three volumes of ACN containing internal standard to the positive control samples.

[4] = Stability and formation of treprostinil in rat cryopreserved hepatocytes
Protocol: as §1

[5] = Stability and formation of treprostinil in dog cryopreserved hepatocytes
Protocol: as §1

[6] = target: T1, prostaglandin D2 (PGD2) receptor 1 (DP1) (Homo sapiens, UniProt Q13258); test: DP1 receptor cAMP assay (agonist mode); type: cell-based
T1 construct: expressed in transfected cells; host or cells: HEK293T
T1 sequence (Q13258 1-359): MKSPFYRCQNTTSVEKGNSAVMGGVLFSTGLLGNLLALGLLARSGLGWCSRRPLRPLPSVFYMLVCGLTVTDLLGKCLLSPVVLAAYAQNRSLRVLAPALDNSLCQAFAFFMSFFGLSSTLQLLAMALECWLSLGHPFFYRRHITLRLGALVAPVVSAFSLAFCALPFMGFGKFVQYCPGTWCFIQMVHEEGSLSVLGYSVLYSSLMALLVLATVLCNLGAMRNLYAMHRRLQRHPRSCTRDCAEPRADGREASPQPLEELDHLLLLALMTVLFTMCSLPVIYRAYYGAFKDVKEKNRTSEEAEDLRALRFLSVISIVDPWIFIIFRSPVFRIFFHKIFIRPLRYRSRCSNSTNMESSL

[7] = target: T2, prostaglandin I2 (PGI2) receptor (IP) (Homo sapiens, UniProt P43119); test: IP receptor cAMP assay (agonist mode); type: cell-based; conditions: Table 20; agonist mode; NC = too inactive to realistically calculate; * partial agonists or odd dose-response curves
T2 construct: expressed in transfected cells; host or cells: CHO-K1
T2 sequence (P43119 whole entry): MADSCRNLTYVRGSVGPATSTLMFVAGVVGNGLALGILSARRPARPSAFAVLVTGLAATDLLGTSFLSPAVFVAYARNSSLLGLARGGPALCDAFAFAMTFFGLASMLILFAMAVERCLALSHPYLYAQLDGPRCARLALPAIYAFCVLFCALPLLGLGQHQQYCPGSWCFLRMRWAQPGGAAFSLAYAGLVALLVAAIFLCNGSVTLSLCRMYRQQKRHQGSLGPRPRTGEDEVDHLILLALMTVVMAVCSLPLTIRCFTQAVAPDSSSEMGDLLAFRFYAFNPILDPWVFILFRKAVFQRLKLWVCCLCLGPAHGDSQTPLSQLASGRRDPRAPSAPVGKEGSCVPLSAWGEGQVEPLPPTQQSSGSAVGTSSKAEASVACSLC

[8] = single IV bolus 1 mg/kg, male Crl:CD(SD) rats
[9] = single oral 50 mg/kg, male Crl:CD(SD) rats
[10] = single oral 50 mg/kg, male Crl:CD(SD) rats, 50 mg/kg
[11] = parent prodrug in plasma, single IV bolus 1 mg/kg, male rats
[12] = parent prodrug in plasma, single PO 1, 10 and 50 mg/kg (all PO groups), male rats
[13] = parent prodrug in plasma, single PO or IV bolus, male rats
[14] = treprostinil in plasma, male rats
[15] = treprostinil in plasma, single IV bolus 1 mg/kg prodrug, male rats
[16] = treprostinil in plasma, single PO 10 mg/kg prodrug, male rats
[17] = treprostinil in plasma, single IV bolus 1 mg/kg prodrug, individual animals, male rats
[18] = treprostinil in plasma, single PO 1 mg/kg prodrug, male rats
[19] = both, human, 15 min, 100 μM, pH 7.4
[20] = male, Sprague-Dawley, rat, 15 min, 100 μM, pH 7.4
[21] = male, Beagle, dog, 15 min, 100 μM, pH 7.4

Compound: CCCCC[C@@H](CC[C@@H]1[C@H]2Cc3cccc(OCC(=O)O)c3C[C@H]2C[C@H]1O)OC(=O)OC(C)C [Prodrug XVII, treprostinil side chain isopropyl carbonate]
Test article-related (adverse) clinical observations [1, 8]: adverse clinical observations | Test article-related (adverse) clinical observations [1, 9]: adverse clinical observations | Mortality [1, 10]: found dead; also recorded: lethality | Prodrug plasma concentrations [2, 11]: BLQ | Prodrug plasma concentrations [2, 12]: BLQ | Prodrug plasma concentrations (BQL) [2, 13]: < 1.00 ng/mL | Dose proportionality of mean treprostinil Cmax and AUC0-24hr [2, 14]: less than dose proportional manner | Mean AUC0-12hr of treprostinil [2, 15]: 274 ng·h/mL | Mean C0 of treprostinil [2, 15]: 1350 ng/mL | Mean Cmax of treprostinil [2, 15]: 466 ng/mL | Treprostinil quantifiable up to (time postdose) [2, 16]: 24 h

Compound: CCCCC[C@@H](CC[C@@H]1[C@H]2Cc3cccc(OCC(=O)O)c3C[C@H]2C[C@H]1O)OC(=O)OCC [Prodrug XVI, treprostinil side chain ethyl carbonate]
Test article-related (adverse) clinical observations [1, 8]: adverse clinical observations | Mortality [1, 9]: found dead | Test article-related (adverse) clinical observations [1, 9]: adverse clinical observations | Prodrug plasma concentrations [2, 11]: BLQ | Prodrug plasma concentrations [2, 12]: BLQ | Prodrug plasma concentrations (BQL) [2, 13]: < 1.00 ng/mL | Dose proportionality of mean treprostinil Cmax and AUC0-24hr [2, 14]: less than dose proportional manner | Individual AUCINF of treprostinil [2, 17]: 183 ng·h/mL | Individual Cl of treprostinil [2, 17]: 91.17 mL/min/kg | Individual Vz of treprostinil [2, 17]: 5.7 L/kg | Individual T1/2 of treprostinil ([2]; treprostinil in plasma, single IV bolus 1 mg/kg prodrug, individual animals, male rats, 1 mg/kg): 0.722 h and 1.10 h | Mean AUC0-12hr of treprostinil [2, 15]: 192 ng·h/mL | Mean C0 of treprostinil [2, 15]: 549 ng/mL | Mean Cmax of treprostinil [2, 15]: 263 ng/mL | Mean T1/2 of treprostinil [2, 15]: 0.912 h | Treprostinil quantifiable up to (time postdose) [2, 15]: 2 h | Individual AUC0-12hr of treprostinil ([2]; treprostinil in plasma, single IV bolus 1 mg/kg prodrug, male rats, 1 mg/kg): 171 ng·h/mL and 214 ng·h/mL | Treprostinil quantifiable up to (time postdose) [2, 16]: 24 h | Treprostinil quantifiable up to (time postdose) ([2]; treprostinil in plasma, single PO 50 mg/kg prodrug, male rats): 24 h | PO bioavailability (% F) of treprostinil, based on mean AUCall/Dose ([2]; PO 1 mg/kg prodrug vs IV bolus 1 mg/kg prodrug, male rats, 1 mg/kg): 5.94% and 7.74% | PO bioavailability (% F) of treprostinil, based on mean AUCall/Dose ([2]; PO 10 mg/kg prodrug vs IV bolus 1 mg/kg prodrug, male rats): 6.35% and 3.17% | PO bioavailability (% F) of treprostinil, based on mean AUCall/Dose ([2]; PO 50 mg/kg prodrug vs IV bolus 1 mg/kg prodrug, male rats): 4.13% and 3.72%

Compound: CCCCC[C@@H](CC[C@@H]1[C@H]2Cc3cccc(OCC(=O)O)c3C[C@H]2C[C@H]1O)OP(=O)(O)O [Prodrug VI, treprostinil side chain phosphate]
Treprostinil Concentration, 0 min [3]: 0 µM | Treprostinil Concentration, 15 min [3]: 0.223 µM | Treprostinil Concentration, 30 min [3]: 0.365 µM | Treprostinil Concentration, 60 min [3]: 0.466 µM | Treprostinil Concentration, 120 min [3]: 0.540 µM | Test article-related (adverse) clinical observations [1, 8]: adverse clinical observations | Test article-related (adverse) clinical observations [1, 9]: adverse clinical observations | Mortality [1, 10]: found dead; also recorded: lethality | Treprostinil Concentration, 0 min [4]: 0.128 µM | Treprostinil Concentration, 15 min [4]: 0.693 µM | Treprostinil Concentration, 30 min [4]: 0.635 µM | Treprostinil Concentration, 60 min [4]: 0.564 µM | Treprostinil Concentration, 120 min [4]: 0.53 µM | Treprostinil Concentration, 0 min [5]: 0.0124 µM | Treprostinil Concentration, 15 min [5]: 0.581 µM | Treprostinil Concentration, 30 min [5]: 0.609 µM | Treprostinil Concentration, 60 min [5]: 0.533 µM | Treprostinil Concentration, 120 min [5]: 0.548 µM | T1/2 of prodrug (single animal) ([2]; parent prodrug, single PO 50 mg/kg, single animal, male rats): 1.76 h | Prodrug plasma concentrations ([2]; rat, in vivo, iv, 1 mg/kg): BLQ | Prodrug plasma concentrations (BQL) ([2]; rat, in vivo, iv, 1 mg/kg): < 1.00 ng/mL | Prodrug plasma concentrations ([2]; rat, in vivo, po, 1 mg/kg): BLQ | Prodrug plasma concentrations ([2]; rat, in vivo, po, 10 mg/kg): BLQ | AUCINF of prodrug (single animal) ([2]; rat, in vivo, po, 50 mg/kg): 28.2 ng·h/mL | Mean AUC0-24hr of prodrug ([2]; rat, in vivo, po, 50 mg/kg): 242 ng·h/mL | Prodrug quantifiable up to (time postdose) ([2]; rat, in vivo, po, 50 mg/kg): 2, 4, 8, or 24 hours | Mean T1/2 of treprostinil [2, 15]: 1.90 h | Mean Cl/F of treprostinil [2, 18]: 448.33 mL/min/kg | Mean T1/2 of treprostinil [2, 18]: 14.0 h | Activity, DP1 Relative to Tre ([6]; Table 24, relative to treprostinil EC50 values, * partial agonists or ambiguous dose-response curves, image character = too high to realistically calculate): 2x

Formation Rate of 7-HC-G (glucuronide) [3, 19]: 97.7 pmol/min/10^6 cells | Formation Rate of 7-HC-S (sulfate) [3, 19]: 10.8 pmol/min/10^6 cells | Formation Rate of 7-HC-G (glucuronide) [4, 20]: 91.4 pmol/min/10^6 cells | Formation Rate of 7-HC-S (sulfate) [4, 20]: 24.7 pmol/min/10^6 cells | Formation Rate of 7-HC-G (glucuronide) [5, 21]: 114 pmol/min/10^6 cells | Formation Rate of 7-HC-S (sulfate) [5, 21]: 35.9 pmol/min/10^6 cells
Compound: O=c1ccc2ccc(O)cc2o1 [7-hydroxycoumarin, reference compound]

EC50 Fold Different from Treprostinil, IP Receptor [7]: 208x | EC50 Fold Different from Treprostinil, DP1 Receptor ([6]; Table 20, agonist mode, NC = too inactive to realistically calculate, * partial agonists or odd dose-response curves): 217x*
Compound: CCCCC[C@H](O)CC[C@@H]1[C@H]2Cc3cccc(OCC(=O)O)c3C[C@H]2C[C@H]1OC [Prodrug LXIII, treprostinil cyclopentyl methyl ether]

Compound: CCCCC[C@@H](CC[C@@H]1[C@H]2Cc3cccc(OCC(=O)O)c3C[C@H]2C[C@H]1O)OC(=O)OC [Prodrug IV]
Test article-related (adverse) clinical observations ([1]; rat, in vivo, iv, 1 mg/kg): adverse clinical observations | Test article-related (adverse) clinical observations ([1]; rat, in vivo, po, 50 mg/kg): adverse clinical observations | Dose proportionality of mean prodrug Cmax ([2]; parent prodrug, PO 10 to 50 mg/kg, male rats): approximately dose proportional manner | PO bioavailability (% F) of prodrug, based on mean AUCall/Dose ([2]; rat, in vivo): 1.04% | Individual AUCINF of prodrug ([2]; rat, in vivo, iv, 1 mg/kg): 41.5 to 144 ng·h/mL | Individual C0 of prodrug ([2]; rat, in vivo, iv, 1 mg/kg): 65.6 to 759 ng/mL | Individual Cl of prodrug ([2]; rat, in vivo, iv, 1 mg/kg): 115.7 to 401.67 mL/min/kg | Individual T1/2 of prodrug ([2]; rat, in vivo, iv, 1 mg/kg): 5.46 to 16.6 min | Individual Vz of prodrug ([2]; rat, in vivo, iv, 1 mg/kg): 2.69 to 3.61 L/kg | Mean AUC0-12hr of prodrug ([2]; rat, in vivo, iv, 1 mg/kg): 94.4 ng·h/mL | Mean AUCINF of prodrug ([2]; rat, in vivo, iv, 1 mg/kg): 98.7 ng·h/mL | Mean C0 of prodrug ([2]; rat, in vivo, iv, 1 mg/kg): 324 ng/mL | Mean Cl of prodrug ([2]; rat, in vivo, iv, 1 mg/kg): 223.33 mL/min/kg | Mean T1/2 of prodrug ([2]; rat, in vivo, iv, 1 mg/kg): 0.212 h | Mean Vz of prodrug ([2]; rat, in vivo, iv, 1 mg/kg): 3.15 L/kg | Prodrug quantifiable up to (time postdose) ([2]; rat, in vivo, iv, 1 mg/kg): 1 or 2 hours | Prodrug quantifiable up to (time postdose) ([2]; rat, in vivo, po, 10 mg/kg): 1 h | AUCINF of prodrug (single animal) ([2]; rat, in vivo, po, 50 mg/kg): 65.4 ng·h/mL | Cl/F of prodrug (single animal) ([2]; rat, in vivo, po, 50 mg/kg): 12733.3 mL/min/kg | Individual AUC0-24hr of prodrug ([2]; rat, in vivo, po, 50 mg/kg): 49.2 ng·h/mL | Prodrug quantifiable up to (time postdose) ([2]; rat, in vivo, po, 50 mg/kg): 1, 2, 8, or 12 hours | T1/2 of prodrug (single animal) ([2]; rat, in vivo, po, 50 mg/kg): 4.27 h | Vz/F of prodrug (single animal) ([2]; rat, in vivo, po, 50 mg/kg): 4710 L/kg
